In ChEMBL document CHEMBL5365394, “Design, synthesis and biological evaluation of novel spiro-quinazolinone derivatives as chitin synthase inhibitors and antifungal agents” (Eur J Med Chem, 2023):
pIC50: −log10 of the molar value. In brackets after ≈: the same amount, converted by molar mass. *1 amine or outer side, *2 acyl side, *3 side chain or, on linkers, in order; H or OH if unused. Where a SMILES comes first, the peptide text is derived from it. Bridges are numbered along the chain shown (N, C = ends). [ ]: non-standard residue; d: D form. The star is where a group is joined. hTyr(3S-OH,4S-OH,3'-OSO3H) = N[C@H](C(=O)O)[C@H](O)[C@@H](O)c1ccc(O)c(OS(=O)(=O)O)c1; Orn(4R-OH,5R-OH) = O=C([C@H](C[C@@H](O)[C@@H](O)N[*:3])N[*:1])[*:2]; Pro(3S-OH,4S-Me) = C[C@H]1CN[C@H](C(=O)O)[C@H]1O; X1 = CCCCCOc1ccc(-c2cc(-c3ccc(C(=O)*)cc3)no2)cc1; Gln(3R-OH) = NC(=O)C[C@@H](O)[C@H](N)C(=O)O; Hyp = O=C(O)[C@@H]1C[C@@H](O)CN1

Legend:
[1] = tested on: Aspergillus flavus; assay: Antifungal activity against Aspergillus flavus ATCC 16870 assessed as fungal growth inhibition incubated for 24 hrs by two-fold serial dilution method; assay type: functional
[2] = tested on: Aspergillus fumigatus; assay: Antifungal activity against Aspergillus fumigatus GIMCC 3.19 assessed as fungal growth inhibition incubated for 24 hrs by two-fold serial dilution method; assay type: functional
[3] = tested on: Cryptococcus neoformans; assay: Antifungal activity against Cryptococcus neoformans ATCC 32719 assessed as fungal growth inhibition incubated for 24 hrs by two-fold serial dilution method; assay type: functional
[4] = tested on: Candida albicans; assay: Antifungal activity against Candida albicans ATCC 76615 assessed as fungal growth inhibition incubated for 24 hrs by two-fold serial dilution method; assay type: functional
[5] = tested on: Candida tropicalis; assay: Inhibition of Candida tropicalis ATCC 750 chitin synthase using […] as substrate at 300 ug/ml incubated for 1 hr by absorbance based assay relative to control; conditions: dose 300.0 µg/ml
[6] = tested on: Candida albicans; assay: Antifungal activity against Micafungin-resistant Candida albicans ATCC 76615R assessed as fungal growth inhibition; assay type: functional
[7] = tested on: Aspergillus flavus; assay: Antifungal activity against Aspergillus flavus ATCC 16870 assessed as inhibition of cell wall synthesis incubated for 24 hrs in absence of sorbitol; assay type: functional
[8] = tested on: Cryptococcus neoformans; assay: Antifungal activity against Cryptococcus neoformans ATCC 32719 assessed as inhibition of cell wall synthesis incubated for 24 hrs in absence of sorbitol; assay type: functional
[9] = Inhibition of Candida tropicalis ATCC 750 chitin synthase using UDP-GlcNAc as substrate incubated for 1 hr by absorbance based assay
[10] = tested on: Aspergillus fumigatus; assay: Antifungal activity against Aspergillus fumigatus GIMCC 3.19 assessed as inhibition of cell wall synthesis incubated for 24 hrs in presence of sorbitol; assay type: functional
[11] = tested on: Candida albicans; assay: Antifungal activity against Candida albicans ATCC 76615 assessed as inhibition of cell wall synthesis incubated for 24 hrs in absence of sorbitol; assay type: functional
[12] = tested on: Candida albicans; assay: Antifungal activity against Candida albicans ATCC 76615 assessed as inhibition of cell wall synthesis incubated for 24 hrs in presence of sorbitol; assay type: functional
[13] = Cytotoxicity against human A549 cells assessed as cell viability at 16 ug/ml incubated for 24 hrs by CCK-8 assay relative to control; assay type: toxicity, cell-based; conditions: at 16 µg/mL, read-out: Activity
[14] = Cytotoxicity against human A549 cells assessed as cell viability at 8 ug/ml incubated for 24 hrs by CCK-8 assay relative to control; assay type: toxicity, cell-based; conditions: at 8 µg/mL, read-out: Activity
[15] = tested on: Aspergillus flavus; assay: Antifungal activity against Aspergillus flavus ATCC 16870 assessed as inhibition of cell wall synthesis incubated for 24 hrs in presence of sorbitol; assay type: functional
[16] = tested on: Aspergillus fumigatus; assay: Antifungal activity against Aspergillus fumigatus GIMCC 3.19 assessed as inhibition of cell wall synthesis incubated for 24 hrs in absence of sorbitol; assay type: functional
[17] = Cytotoxicity against human A549 cells assessed as cell viability at 32 ug/ml incubated for 24 hrs by CCK-8 assay relative to control; assay type: toxicity, cell-based; conditions: at 32 µg/mL, read-out: Activity
[18] = Cytotoxicity against human A549 cells assessed as cell viability at 4 ug/ml incubated for 24 hrs by CCK-8 assay relative to control; assay type: toxicity, cell-based; conditions: at 4 µg/mL, read-out: Activity
[19] = tested on: Cryptococcus neoformans; assay: Antifungal activity against Cryptococcus neoformans ATCC 32719 assessed as inhibition of cell wall synthesis incubated for 24 hrs in presence of sorbitol; assay type: functional
[20] = Cytotoxicity against human A549 cells assessed as cell viability at 64 ug/ml incubated for 24 hrs by CCK-8 assay relative to control; assay type: toxicity, cell-based; conditions: at 64 µg/mL, read-out: Activity
[21] = tested on: A549; assay: Cytotoxicity against human A549 cells assessed as cell viability incubated for 24 hrs at 128 ug/ml by CCK-8 assay relative to control; conditions: dose 128 µg/ml

MIC [1] [µg/mL]	MIC [2] [µg/mL]	MIC [3] [µg/mL]	MIC [4] [µg/mL]	inhibition [5] [%]	pIC50 [9]	SMILES	further results
64 (≈ 136 µM)	64 (≈ 136 µM)	32 (≈ 67.9 µM)	32 (≈ 67.9 µM)	63.1		O=C(/C=C/C(=O)Nc1ccc2c(c1)C(=O)NC1(CCOC1)N2)Nc1ccc(Br)cc1 (stereo not given)	
						CCCCCOc1ccc(-c2cc(-c3ccc(C(=O)N[C@H]4C[C@@H](O)[C@@H](O)NC(=O)[C@@H]5[C@@H](O)[C@@H](C)CN5C(=O)[C@H]([C@H](O)CC(N)=O)NC(=O)[C@H]([C@H](O)[C@@H](O)c5ccc(O)c(OS(=O)(=O)O)c5)NC(=O)[C@@H]5C[C@@H](O)CN5C(=O)[C@H]([C@@H](C)O)NC4=O)cc3)no2)cc1 [MICAFUNGIN] (X1-[Orn(4R-OH,5R-OH)]T[Hyp][hTyr(3S-OH,4S-OH,3'-OSO3H)][Gln(3R-OH)][Pro(3S-OH,4S-Me)]; lactam 1-C)	MIC [6]: 256 µg/mL (≈ 202 µM)
128 (≈ 300 µM)	128 (≈ 300 µM)	128 (≈ 300 µM)	128 (≈ 300 µM)	49.2		O=C(/C=C/C(=O)Nc1ccc2c(c1)C(=O)NC1(CCOC1)N2)Nc1ccc(Cl)cc1 (stereo not given)	
256 (≈ 603 µM)	256 (≈ 603 µM)	128 (≈ 301 µM)	128 (≈ 301 µM)	38.7		O=C(/C=C/C(=O)Nc1ccccc1Cl)Nc1ccc2c(c1)C(=O)NC1(CCCC1)N2	
128 (≈ 303 µM)	128 (≈ 303 µM)	64 (≈ 151 µM)	64 (≈ 151 µM)	47.2	3.10	Cc1cccc(NC(=O)/C=C/C(=O)Nc2ccc3c(c2)C(=O)NC2(CCSC2)N3)c1 (stereo not given)	
128 (≈ 273 µM)	128 (≈ 273 µM)	64 (≈ 136 µM)	128 (≈ 273 µM)	56.4		O=C(/C=C/C(=O)Nc1ccc2c(c1)C(=O)NC1(CCCC1)N2)Nc1ccc(Br)cc1	
128 (≈ 289 µM)	128 (≈ 289 µM)	128 (≈ 289 µM)	128 (≈ 289 µM)	48.2		O=C(/C=C/C(=O)Nc1ccc2c(c1)C(=O)NC1(CCCC1)N2)Nc1ccc(F)c(Cl)c1	
32 (≈ 65.7 µM)	64 (≈ 131 µM)	32 (≈ 65.7 µM)	32 (≈ 65.7 µM)	67.5	3.81	O=C(/C=C/C(=O)Nc1ccc2c(c1)C(=O)NC1(CCSC1)N2)Nc1cccc(Br)c1 (stereo not given)	
128 (≈ 300 µM)	128 (≈ 300 µM)	128 (≈ 300 µM)	64 (≈ 150 µM)	52.2	3.18	O=C(/C=C/C(=O)Nc1ccccc1F)Nc1ccc2c(c1)C(=O)NC1(CCSC1)N2 (stereo not given)	
128 (≈ 303 µM)	128 (≈ 303 µM)	128 (≈ 303 µM)	64 (≈ 151 µM)	48.2	3.05	Cc1ccc(NC(=O)/C=C/C(=O)Nc2ccc3c(c2)C(=O)NC2(CCSC2)N3)cc1 (stereo not given)	

SMILES	MIC [1] [µg/mL]	MIC [2] [µg/mL]	MIC [3] [µg/mL]	MIC [4] [µg/mL]	inhibition [5] [%]	pIC50 [9]	further results
NC(=O)OC[C@H](O)[C@@H](O)[C@H](N)C(=O)N[C@H](C(=O)O)[C@H]1O[C@@H](n2cc(CO)c(=O)[nH]c2=O)[C@H](O)[C@@H]1O [POLYOXIN B]	16 (≈ 31.5 µM)	16 (≈ 31.5 µM)	16 (≈ 31.5 µM)	8 (≈ 15.8 µM)	84.7	4.03	MIC [7]: 16 µg/mL (≈ 31.5 µM); MIC [8]: 16 µg/mL (≈ 31.5 µM); MIC [10]: 128 µg/mL; MIC [11]: 8 µg/mL (≈ 15.8 µM); MIC [12]: 128 µg/mL; viability at 24 h, 16 ug/ml [13]: 97.9%; viability at 24 h, 8 ug/ml [14]: 98.7%; MIC [15]: 128 µg/mL; MIC [16]: 16 µg/mL (≈ 31.5 µM); viability at 24 h, 32 ug/ml [17]: 92.7%; viability at 24 h, 4 ug/ml [18]: 99.3%; MIC [19]: 64 µg/mL; viability at 24 h, 64 ug/ml [20]: 91.2%; viability [21]: 84.3%
